Reference: PMC7496920, “Structure‐Activity Relationship of Phenylpyrazolones against Trypanosoma cruzi” (Chemmedchem, 2020)

Experiments:
MRC‐5 cells [1] = test system: MRC‐5 cells; parameters: method as in earlier work; conditions: earlier hit optimization; cited from earlier work
[2] = test system: intracellular amastigotes of T. cruzi (Tulahuen strain); experiment: Trypanosoma cruzi in vitro susceptibility assay on intracellular amastigotes (β‐galactosidase strain); assay type: cell-based; conditions: for IC50: Trypanosoma cruzi, TULAHUEN, MRC-5 SV2, 168 h, intracellular amastigotes, Tulahuen CL2 β‐galactosidase strain in MRC‐5SV2 cells, 7 d, SD ±0.2, n>=2, read-out: pIC50 T. cruzi (converted); for SI (selectivity index): cytotoxicity (IC50, MRC‐5) divided by T. cruzi activity (IC50)
Method: Trypanosoma cruzi in vitro assay: Bloodstream trypomastigotes (BT) of the Y strain of T. cruzi were obtained by cardiac puncture of infected Swiss Webster mice on the parasitaemia peak.12 For the standard in vitro susceptibility assay on intracellular amastigotes, T. cruzi Tulahuen CL2, β‐galactosidase strain (DTU VI, nifurtimox‐sensitive) was used. The strain is maintained on MRC‐5SV2 (human lung fibroblast) cells in MEM medium, supplemented with […] L‐glutamine, 16.5 mM NaHCO3, and 5 % heat inactivated fetal calf serum (FCSi). […] The color reaction was read at 540 nm after 4 h, and absorbance values were expressed as a percentage of the blank controls. All cultures and assays are conducted at 37 °C under 5 % CO2.13 Benznidazole was used as a reference compound.

MRC‐5 cells [3] = experiment: MRC‐5 cytotoxicity in vitro assay (resazurin); assay type: cell-based, human; conditions: for IC50: Homo sapiens, MRC5, 72 h, MRC‐5‐SV2 cytotoxicity, 72 h, SD ±0.2, n>=2, read-out: pIC50 MRC‐5 (converted)
Method: MRC‐5 cytotoxicity in vitro assay: MRC‐5‐SV2 cells, originally from a human diploid lung cell line, were cultivated in MEM, supplemented with L‐glutamine (20 mM), 16.5 mM sodium hydrogen carbonate and 5 % FCSi. For the assay, 10^4 cells/well were seeded onto the test plates containing the pre‐diluted sample and incubated at 37 °C and 5 % CO2 for 72 h. Cell viability was assessed fluorometrically 4 h after addition of resazurin (excitation 550 nm, emission 590 nm). The results are expressed as percentage reduction in cell viability compared to untreated controls. Tamoxifen was used as a reference compound.

[4] = test system: intracellular amastigotes of T. cruzi (Tulahuen strain); parameters: method as in earlier work; conditions: earlier hit optimization; cited from earlier work

Row | SMILES | pIC50 MRC‐5 (MRC‐5 cells [1]) | IC50 [2] [µM] | SI (selectivity index) [2] | IC50 (MRC‐5 cells [3]) [µM] | pIC50 T. cruzi [4] | MRC‐5 toxicity at 62 μM (MRC‐5 cells [3]; 62 μM, limit concentration screened)
1 | COc1ccc(C2=NN(C(C)C)C(=O)C2(C)C)cc1-c1cccnc1 [compound 3, 2‐isopropyl‐5‐(4‐methoxy‐3‐(pyridin‐3‐yl)phenyl)‐4,4‐dimethyl‐2,4‐dihydro‐3H‐pyrazol‐3‐one] | 4.4 | 0.398 | 100 | 39.8 | 6.4 | –
2 | COc1cc(C2=NN(C(C)C)C(=O)C2(C)C)cc(-c2cccnc2)c1 [compound 57] | – | 7.94 | 4 | 31.6 | – | –
3 | COc1cc(C2=NN(C(C)C)C(=O)C2(C)C)cc(-c2cccnc2)c1OC [compound 58] | – | 50.1 | >1 | > 63.1 | – | –
4 | CC(C)N1N=C(c2cc3c(c(-c4cccnc4)c2)OCC3)C(C)(C)C1=O [compound 59, 1‐Isopropyl‐4,4‐dimethyl‐3‐(7‐(pyridin‐3‐yl)‐2,3‐dihydrobenzofuran‐5‐yl)‐1H‐pyrazol‐5(4H)‐one] | – | 1.58 | 16 | 25.1 | – | –
5 | COc1c(Br)cc(C2=NN(C(C)C)C(=O)C2(C)C)cc1-c1cccnc1 [compound 60] | – | 7.94 | 3 | 25.1 | – | –
6 | CC(C)N1N=C(c2cccc(-c3cccnc3)c2)C(C)(C)C1=O [compound 61] | – | 3.16 | 20 | 63.1 | – | –
7 | CC(C)N1N=C(c2ccc(F)c(-c3cccnc3)c2)C(C)(C)C1=O [compound 62] | – | ~3.16 | >10 | > 63.1 | – | –
8 | CC(C)N1N=C(c2ccc(Cl)c(-c3cccnc3)c2)C(C)(C)C1=O [compound 63] | – | ~3.16 | 5 | 15.8 | – | –
9 | Cc1ccc(C2=NN(C(C)C)C(=O)C2(C)C)cc1-c1cccnc1 [compound 64] | – | ~3.16 | >25 | > 63.1 | – | –
10 | COc1ccc(C2=NN(C(C)C)C(=O)C2(C)C)c(F)c1-c1cccnc1 [compound 65] | – | 2.51 | >25 | > 63.1 | – | –
11 | COc1cc(F)c(C2=NN(C(C)C)C(=O)C2(C)C)cc1-c1cccnc1 [compound 66] | – | 5.01 | >13 | > 63.1 | – | –
12 | COc1c(C)cc(C2=NN(C(C)C)C(=O)C2(C)C)cc1-c1cccnc1 [compound 67] | – | 12.6 | >5 | > 63.1 | – | –
13 | COc1cc(C)c(C2=NN(C(C)C)C(=O)C2(C)C)cc1-c1cccnc1 [compound 68] | – | 31.6 | >2 | > 63.1 | – | –
14 | CC(C)N1N=C(c2ccc(C#N)c(-c3cccnc3)c2)C(C)(C)C1=O [compound 74] | – | 50.1 | >1 | > 63.1 | – | –
15 | COc1ccc(C2=NN(C(C)C)C(=O)C23CCCC3)cc1-c1cccnc1 [compound 89] | – | 6.31 | – | 31.6 | – | –
16 | COc1ccc(C2=NN(C(C)C)C(=O)C23CC=CC3)cc1-c1cccnc1 [compound 90] | – | 7.94 | – | 39.8 | – | –
17 | COc1ccc(C2=NN(C(C)C)C(=O)C23CCN(C)CC3)cc1-c1cccnc1 [compound 91] | – | 31.6 | 2 | 50.1 | – | –
18 | COc1ccc(C2=NN(C(C)C)C(=O)C23CCOCC3)cc1-c1cccnc1 [compound 92] | – | 31.6 | 1 | 31.6 | – | –

Row | SMILES | pIC50 MRC‐5 (MRC‐5 cells [1]) | IC50 [2] [µM] | SI (selectivity index) [2] | IC50 (MRC‐5 cells [3]) [µM] | pIC50 T. cruzi [4] | MRC‐5 toxicity at 62 μM (MRC‐5 cells [3]; 62 μM, limit concentration screened)
19 | COc1ccc(-c2cc3n(n2)CCO3)cc1-c1cccnc1 [compound 95] | – | 31.6 | 2 | 50.1 | – | –
20 | COc1ccc(Cc2nnc(N)s2)cc1-c1cccnc1 [compound 98] | – | > 63.1 | – | > 63.1 | – | –
21 | COc1ccc(C2=NN(C(C)C)C(=S)C2(C)C)cc1-c1cccnc1 [compound 99] | – | 0.501 | 32 | 15.8 | – | –
22 | COc1ccc(C2=NN(C(C)C)C(=O)CC2)cc1-c1cccnc1 [compound 104] | – | 10 | 3 | 25.1 | – | –
23 | COc1ccc(C2=Nn3c(C4CC4)nnc3C2(C)C)cc1-c1cccnc1 [compound 109] | – | 15.8 | >4 | > 63.1 | – | –
24 | COc1ccc(-c2nc(C(C)(C)C)co2)cc1-c1cccnc1 [compound 120, 4‐(tert‐Butyl)‐2‐(4‐methoxy‐3‐(pyridin‐3‐yl)phenyl)oxazole] | – | 2 | 3 | < 6.31 | – | –
25 | COc1ccc(-c2nc(-c3ccccc3)co2)cc1-c1cccnc1 [compound 121] | – | 1 | 3 | < 6.31 | – | –
26 | COc1ccc(-c2nc(-c3cccc(F)c3)co2)cc1-c1cccnc1 [compound 122] | – | 1.26 | – | – | – | –
27 | COc1ccc(-c2nc(-c3ccc(F)cc3)co2)cc1-c1cccnc1 [compound 123] | – | 0.631 | >100 | > 63.1 | – | no MRC‐5 toxicity
28 | COc1ccc(-c2nc(-c3ccccc3)c(C)o2)cc1-c1cccnc1 [compound 124] | – | 2 | 3 | < 6.31 | – | –
29 | COc1ccc(-c2nnc(C(C)C)o2)cc1-c1cccnc1 [compound 132, 2‐Isopropyl‐5‐(4‐methoxy‐3‐(pyridin‐3‐yl)phenyl)‐1,3,4‐oxadiazole] | – | 20 | >3 | > 63.1 | – | –
30 | COc1ccc(-c2nnc(C3CCCC3)o2)cc1-c1cccnc1 [compound 133] | – | 10 | >6 | > 63.1 | – | –
31 | COc1ccc(-c2nnc(CC3CCOCC3)o2)cc1-c1cccnc1 [compound 134] | – | 25.1 | >3 | > 63.1 | – | –
32 | COc1ccc(-c2nnc(-c3ccccc3)o2)cc1-c1cccnc1 [compound 135] | – | ~1.58 | >40 | > 63.1 | – | –
33 | COc1ccc(-c2nnc(-c3cccc(F)c3)o2)cc1-c1cccnc1 [compound 136] | – | ~1.58 | >32 | > 63.1 | – | –
34 | COc1ccc(-c2nc(C3CC3)cs2)cc1-c1cccnc1 [compound 141] | – | 2.51 | 3 | 7.94 | – | –
35 | COc1ccc(-c2nc(-c3ccccc3)cs2)cc1-c1cccnc1 [compound 142] | – | 2 | 1 | 2.51 | – | –
